# Source: paper PMC6285983, “Novel broad spectrum virucidal molecules against enveloped viruses” (PLoS ONE, 2018)
# Legend:
# [1] = system: HSV-2; test: HSV-2 plaquing efficiency assay, compound preincubated with virus 1 h at 37°C; assay type: cell-based; settings: Human alphaherpesvirus 2, HSV-2, Vero cells, 1 h pre-incubation virus/compound; for EC50: plaques at 24 h, read-out: EC50 (95% C.I.); for EC90: read-out: EC90 (95% C.I.)
# [2] = Cell viability MTS assay on Vero cells; settings: African green monkey, CC50, Vero cells, MTS
# [3] = in vitro; settings: African green monkey
# [4] = system: HSV-2 acyclovir resistant strain; test: microbe, parasite or virus in culture; assay type: cell-based; settings: Human alphaherpesvirus 2
# [5] = In vitro lipoperoxidation test (TBA assay, MDA); settings: 0.05% w/w added to liposomes, exposure to compound 9d
Molecule,melting point,EC50 [1],EC90 [1],CC50 [2],CC50 [3],EC50 [4],reduction of the peroxidation of linoleic acid [5]
"O=C(O)c1ccc(-c2ccc(/C=C3\SC(=S)N(CCc4c[nH]c5ccccc45)C3=O)o2)cc1O [Compound 9a, (Z)-4-(5-((3-(2-(1H-Indol-3-yl)ethyl)-4-oxo-2-thioxothiazolidin-5-ylidene)methyl)furan-2-yl)-2-hydroxybenzoic acid]",254 °C (dec.),0.63 µM,2.05 µM,291 µM,–,–,–
"O=C(O)c1ccc(-c2ccc(/C=C3\SC(=S)N(CCc4ccc(Br)cc4)C3=O)o2)cc1O [Compound 9b, (Z)-4-(5-((3-(4-bromophenethyl)-4-oxo-2-thio-oxothiazolidin-5-ylidene)methyl)furan-2-yl)-2-hydroxybenzoic acid]",275 °C (dec.),0.12 µM,0.404 µM,13.5 µM,–,–,–
"COc1ccc(CCN2C(=O)/C(=C/c3ccc(-c4ccc(C(=O)O)c(O)c4)o3)SC2=S)cc1 [Compound 9c, (Z)-2-hydroxy-4-(5-((3-(4-methoxyphenethyl)-4-oxo-2-thioxothiazolidin-5-ylidene)methyl)furan-2-yl)benzoic acid]",265 °C (dec.),0.06 µM,0.145 µM,9.87 µM,–,–,–
"O=C1/C(=C/c2ccc(-c3cc(C(F)(F)F)ccc3Cl)o2)SC(=S)N1Cc1ccc(F)cc1 [Compound 9e, (Z)-5-((5-(2-chloro-5-(trifluoromethyl)phenyl)furan-2-yl)methylene)-3-(4-fluorobenzyl)-2-thioxothiazolidin-4-one]",–,0.767 µM,5.74 µM,> 300 µM,–,–,–
"O=C1NC(=S)N(Cc2ccccc2)C(=O)/C1=C\c1ccc(-c2ccc(C(=O)O)c(O)c2)o1 [Compound 15a, (Z)-4-(5-((1-benzyl-4,6-dioxo-2-thioxotetrahydropyrimidin-5(2H)-ylidene)methyl)furan-2-yl)-2-hydroxybenzoic acid]",–,1.03 µM,57.1 µM,–,> 300 µM,–,–
"O=C1NC(=S)N(CCc2ccccc2)C(=O)/C1=C\c1ccc(-c2ccc(C(=O)O)c(O)c2)o1 [Compound 15b, (Z)-4-(5-((4,6-dioxo-1-phenethyl-2-thioxotetrahydropyrimidin-5(2H)-ylidene)methyl)furan-2-yl)-2-hydroxybenzoic acid]",–,0.0484 µM,10.9 µM,–,> 300 µM,–,–
"Nc1nc2c(ncn2COCCO)c(=O)[nH]1 [acyclovir, reference compound]",–,–,–,–,–,319 µM,–
(±)-α-tocopherol [reference compound],–,–,–,–,–,–,50.5%
